# “And” between values parts separate entries of the source, which are not always exact repeats. Identical values can stand only once.
# Biological target: PIK3CA (human) (UniProt P42336)
# Experiment: Inhibition of PIK3CA Kinase Activity
# Chain of PIK3CA (human) (P42336 whole entry, looked up): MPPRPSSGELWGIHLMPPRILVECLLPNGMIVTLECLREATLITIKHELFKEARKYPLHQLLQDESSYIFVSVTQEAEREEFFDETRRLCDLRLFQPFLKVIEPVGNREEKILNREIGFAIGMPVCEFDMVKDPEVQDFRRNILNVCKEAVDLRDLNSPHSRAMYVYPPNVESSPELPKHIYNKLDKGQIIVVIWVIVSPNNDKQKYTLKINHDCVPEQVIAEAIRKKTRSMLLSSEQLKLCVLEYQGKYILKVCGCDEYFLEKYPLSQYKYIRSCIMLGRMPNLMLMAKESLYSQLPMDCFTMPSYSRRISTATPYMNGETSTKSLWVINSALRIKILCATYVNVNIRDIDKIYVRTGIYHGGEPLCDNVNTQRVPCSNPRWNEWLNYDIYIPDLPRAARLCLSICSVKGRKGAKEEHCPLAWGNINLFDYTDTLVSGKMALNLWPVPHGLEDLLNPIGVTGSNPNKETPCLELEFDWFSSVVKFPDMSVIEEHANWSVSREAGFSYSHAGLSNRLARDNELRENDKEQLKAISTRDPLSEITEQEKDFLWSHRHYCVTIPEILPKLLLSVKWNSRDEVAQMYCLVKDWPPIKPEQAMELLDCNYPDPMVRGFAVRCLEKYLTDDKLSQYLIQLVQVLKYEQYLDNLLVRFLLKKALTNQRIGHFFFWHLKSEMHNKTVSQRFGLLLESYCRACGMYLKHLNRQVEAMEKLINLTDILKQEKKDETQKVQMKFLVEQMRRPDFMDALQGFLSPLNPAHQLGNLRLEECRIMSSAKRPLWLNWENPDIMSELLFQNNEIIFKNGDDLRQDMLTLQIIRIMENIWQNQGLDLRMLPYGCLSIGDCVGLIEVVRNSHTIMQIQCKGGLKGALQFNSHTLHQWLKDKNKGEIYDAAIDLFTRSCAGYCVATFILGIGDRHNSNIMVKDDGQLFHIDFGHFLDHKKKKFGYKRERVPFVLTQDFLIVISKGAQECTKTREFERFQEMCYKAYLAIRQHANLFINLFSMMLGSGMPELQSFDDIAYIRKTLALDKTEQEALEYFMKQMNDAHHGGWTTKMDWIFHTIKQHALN
row,Compound,IC50
1,Cc1nc(-c2cn3c(n2)-c2ccc(-c4ccnn4C4CCN(C(C)(C)C)CC4)cc2OCC3)n(C(C)C)n1,44.8 nM
2,Cc1nc(-c2cn3c(n2)-c2ccc(-c4cnn(C)c4[C@@H]4CCCN(C(C)C)C4)cc2OCC3)n(C(C)C)n1,58.8 nM
3,Cc1nc(-c2cn3c(n2)-c2cc([C@@H](C)N4CCN(C(C)(C)C)CC4)c(C)cc2OCC3)n(C(C)C)n1,52.2 nM
4,Cc1nc(-c2cn3c(n2)-c2ccc(OC4(CC(C)C)CN(C(C)C)C4)cc2OCC3)n(C(C)C)n1,278 nM
5,Cc1nc(-c2cn3c(n2)-c2cc(C(C)N4CCN(C)CC4)c(F)cc2OCC3)n(C(C)C)n1 (centres undefined),49.1 nM
6,Cc1nc(-c2cn3c(n2)-c2cc(-c4ccnn4[C@H]4CCCN(C5COC5)C4)c(F)cc2OCC3)n(C(C)C)n1,207 nM
7,Cc1nc(-c2cn3c(n2)-c2ccc(-c4cnn(C)c4C4CCCN(C(C)(C)CO)C4)cc2OCC3)n(C(C)C)n1 (centres undefined),30.9 nM and 92.2 nM and 32 nM
8,Cc1nc(-c2cn3c(n2)-c2cc([C@@H](C)N4CCN(CC(C)(C)O)CC4)c(F)cc2OCC3)n(C(C)C)n1,182 nM
9,COc1cc2c(cc1[C@@H](C)N1CCN(C(C)(C)C)CC1)-c1nc(-c3nc(C)nn3C(C)C)cn1CCO2,97.9 nM and 47.8 nM
10,CC(C)n1ncnc1-c1cn2c(n1)-c1ccc(-c3ccccc3S(N)(=O)=O)cc1OCC2,242 nM
11,Cc1nc(-c2cn3c(n2)-c2cc([C@H](C)N4CCN(C(C)C)CC4)c(F)cc2OCC3)n(C(C)C)n1,59.9 nM
12,Cc1nc(-c2cn3c(n2)-c2ccc(OC4(c5ccccc5)CN(C(C)C)C4)cc2OCC3)n(C(C)C)n1,105 nM
13,Cc1nc(-c2cn3c(n2)-c2cc(C(=O)N4CCN(C(C)(C)CO)CC4)c(F)cc2OCC3)n(C(C)C)n1,172 nM
14,COc1cc2c(cc1[C@H](C)N1CCN(C(C)(C)C)CC1)-c1nc(-c3nc(C)nn3C(C)C)cn1CCO2,62 nM and 90.9 nM
15,Cc1nc(-c2cn3c(n2)-c2ccc(OC4(CC5CC5)CN(C(C)C)C4)cc2OCC3)n(C(C)C)n1,70.7 nM
16,Cc1nc(-c2cn3c(n2)-c2cc([C@@H](C)N4CCN(C(C)(C)C)CC4)c(F)cc2OCC3)n(C(C)C)n1,372 nM
17,Cc1nc(-c2cn3c(n2)-c2cc([C@H](C)N4CCN(C(C)(C)CO)CC4)c(F)cc2OCC3)n(C(C)C)n1,422 nM
18,Cc1nc(-c2cn3c(n2)-c2ccc(OC4(CC5CC5)CNC4)cc2OCC3)n(C(C)C)n1,69.3 nM
19,Cc1nc(-c2cn3c(n2)-c2cc(-c4ccnn4[C@@H]4CCCN(C(C)(C)CO)C4)c(F)cc2OCC3)n(C(C)C)n1,47.4 nM and 19.3 nM
20,Cc1nc(-c2cn3c(n2)-c2ccc(N4CCCC4CN(C)C)cc2OCC3)n(C(C)C)n1 (centres undefined),14 nM and 6.62 nM
21,Cc1nc(-c2cn3c(n2)-c2ccc(-n4ccnc4C4CCCN(C(C)C)C4)cc2OCC3)n(C(C)C)n1 (centres undefined),125 nM

row,Compound,IC50
1,Cc1nc(-c2cn3c(n2)-c2cc(C(C)N4CCN(C5COC5)CC4)c(C)cc2OCC3)n(C(C)C)n1 (centres undefined),126 nM
2,Cc1nc(-c2cn3c(n2)-c2cc([C@@H](C)N4CCN(C(C)C)CC4)c(F)cc2OCC3)n(C(C)C)n1,169 nM
3,Cc1nc(-c2cn3c(n2)-c2ccc(-c4cnn(C(C)C)c4CN4CCN(C)CC4)cc2OCC3)n(C(C)C)n1,112 nM
4,Cc1nc(-c2cn3c(n2)-c2cc([C@@H](C)N4CCN(C(C)(C)C)CC4)ncc2OCC3)n(C(C)C)n1,80.4 nM
5,Cc1nc(-c2cn3c(n2)-c2cc([C@@H](C)N4CCN(C(C)(C)CO)CC4)ncc2OCC3)n(C(C)C)n1,219 nM
6,Cc1nc(-c2cn3c(n2)-c2cnc(N4CCCC4C4CCCCN4C)cc2OCC3)n(CC(F)(F)F)n1 (centres undefined),1.85 nM and 1.9 nM
7,CCN1CCN(C(C)c2cc3c(cc2F)OCCn2cc(-c4nc(C)nn4C(C)C)nc2-3)CC1 (centres undefined),86.8 nM
8,Cc1nc(-c2cn3c(n2)-c2cc(C(C)N4CCN(C(C)(C)C)CC4)c(F)cc2OCC3)n(C(C)C)n1 (centres undefined),250 nM
9,Cc1nc(-c2cn3c(n2)-c2ccc(N4CCCC4C4CCN(CC(C)(C)O)CC4)cc2OCC3)n(C(C)C)n1 (centres undefined),74.8 nM and 49.2 nM
10,Cc1nc(-c2cn3c(n2)-c2cc(C(O)C4CCN(C)CC4)ccc2OCC3)n(C(C)C)n1 (centres undefined),193 nM
11,Cc1nc(-c2cn3c(n2)-c2cc([C@@H](C)N4CCN(C(C)(C)CO)CC4)c(F)cc2OCC3)n(C(C)C)n1,263 nM
12,Cc1nc(-c2cn3c(n2)-c2ccc(-c4cnc(C)n4C4CCCN(C(C)C)C4)cc2OCC3)n(C(C)C)n1 (centres undefined),145 nM
13,Cc1nc(-c2cn3c(n2)-c2ccc(N4CCC4C4CCN(C)CC4)cc2OCC3)n(C(C)C)n1 (centres undefined),21.5 nM and 45.4 nM and 11.8 nM
14,Cc1nc(-c2cn3c(n2)-c2cc([C@H](C)N4CCN(CC(C)(C)O)CC4)c(F)cc2OCC3)n(C(C)C)n1,724 nM
15,Cc1nc(-c2cn3c(n2)-c2cc([C@H](C)N4CCN(C(C)(C)CO)CC4)ncc2OCC3)n(C(C)C)n1,180 nM
16,Cc1nc(-c2cn3c(n2)-c2ccc(-c4cnn(C)c4C4CCCN(C(C)C)C4)cc2OCC3)n(C(C)C)n1 (centres undefined),57.7 nM
17,Cc1nc(-c2cn3c(n2)-c2ccc(OC4(CN5CCN(C)CC5)CC4)cc2OCC3)n(C(C)C)n1,86.4 nM
18,Cc1nc(-c2cn3c(n2)-c2ccc(-c4cnn(C)c4C4CC(N(C)C(C)C)CCO4)cc2OCC3)n(C(C)C)n1 (centres undefined),219 nM and 49.8 nM and 81.2 nM
19,CC(C)n1ncnc1-c1cn2c(n1)-c1cc([S+]([O-])C3CCN(C(C)(C)C)CC3)ccc1OCC2 (centres undefined),149 nM
20,Cc1nc(-c2cn3c(n2)-c2ccc(-c4ccnn4C4CCCN(Cc5ccccc5)C4)cc2OCC3)n(C(C)C)n1 (centres undefined),186 nM

# Other lines, results leading:
row,IC50,Compound
1,24.9 nM,CC(C)n1ncnc1-c1cn2c(n1)-c1cc(C(=O)N3CCN(C(C)(C)C)CC3)ccc1OCC2
2,18.9 nM,CCN1CCC(C2CCCN2c2ccc3c(c2)OCCn2cc(-c4nc(C)nn4C(C)C)nc2-3)CC1 (centres undefined)
3,14.4 nM,Cc1nc(-c2cn3c(n2)-c2ccc(-c4ccnn4C4CCCN(C(C)(C)CO)C4)cc2OCC3)n(C(C)C)n1 (centres undefined)
4,6.36 nM,CC(Oc1ccc2c(c1)OCCn1cc(-c3ncnn3C(C)C)nc1-2)C1CCN(C(C)C)CC1 (centres undefined)
5,21.9 nM,Cc1nc(-c2cn3c(n2)-c2ccc(N4CCC[C@@H]4C4CCN(C(C)C)CC4)cc2OCC3)n(C(C)C)n1
6,15.1 nM,Cc1nc(-c2cn3c(n2)-c2ccc(N4CCC4C4CCN(C(C)C)CC4)cc2OCC3)n(C(C)C)n1 (centres undefined)
7,32.8 nM,Cc1nc(-c2cn3c(n2)-c2ccc(OC4CC(C)CN(C(C)C)C4)cc2OCC3)n(C(C)C)n1 (centres undefined)
8,14.6 nM,Cc1nc(-c2cn3c(n2)-c2ccc(N4CCCC4C4CCN(S(C)(=O)=O)CC4)cc2OCC3)n(C(C)C)n1 (centres undefined)
9,9.19 nM,Cc1nc(-c2cn3c(n2)-c2ccc(OC4(C)CCN(C(C)C)C4)cc2OCC3)n(C(C)C)n1 (centres undefined)
10,33.4 nM,Cc1nc(-c2cn3c(n2)-c2ccc(-c4ccnn4C4CCN(C(C)C)CC4)cc2OCC3)n(C(C)C)n1
11,2.34 nM,Cc1nc(-c2cn3c(n2)-c2ccc(-c4cnn(C)c4N4CCN(C)[C@H](C(C)C)C4)cc2OCC3)n(C(C)C)n1
12,13.9 nM,CC(C)n1ncnc1-c1cn2c(n1)-c1cnc(N3CCCC3C3CCN(C)CC3)cc1OCC2 (centres undefined)
13,8.81 nM,Cc1nc(-c2cn3c(n2)-c2cc([C@H](C)N4CCN(C(C)C)CC4)c(C)cc2OCC3)n(C(C)C)n1
14,20.3 nM,Cc1nc(-c2cn3c(n2)-c2ccc(N4CCC[C@H]4C4CCN(C(C)C)CC4)cc2OCC3)n(C(C)C)n1
15,6.2 nM,Cc1nc(-c2cn3c(n2)-c2ccc(OC4(C)CNC4)cc2OCC3)n(C(C)C)n1
16,44.3 nM,Cc1nc(-c2cn3c(n2)-c2ccc(-c4ccnn4C4CCCN(C5(C)COC5)C4)cc2OCC3)n(C(C)C)n1 (centres undefined)
17,38.5 nM,CC(C)n1nc(CO)nc1-c1cn2c(n1)-c1ccc(-c3ccnn3C3CCN(C)CC3)cc1OCC2
18,43 nM,Cc1nc(-c2cn3c(n2)-c2ccc(-c4ccnn4[C@H]4CCCN(C(C)(C)CO)C4)cc2OCC3)n(C(C)C)n1
